{"source": "patent US20250152559A1", "about": "“METHODS FOR TREATING MYC-AMPLIFIED CANCER” (The Governing Council of the University of Toronto, priority 2023, published 2025)", "key": {"[1]": {"test_system": "D425", "test": "PrestoBlue cell viability, 72-hour treatment, limiting dilution", "type": "cell-based", "conditions": "Homo sapiens, read-out: BAY2402234 IC50; D425, G3MB-MYC", "method": "(§1) SU_MB002, NSC194, NSC197 and NSC201FT, MBT375 and MED411FHTC were maintained in Neurocult Complete (NCC) media (Stem Cell Technologies; catalogue #05751). D425 and D458 were maintained in Dulbecco's […] (DMEM) containing 10% fetal bovine serum (FBS). HD-MB03 were maintained in NCC containing 10% FBS. All cell lines were conditioned in NCC for a minimum of 48 hours before experimentation. SU_MB002 and HD-MB03 G3MB-MYC PDOX were obtained from collaborators as kind gifts and are frequently passaged in vivo. SU_MB002, a treatment-refractory group 3 MB acquired at autopsy was received from Dr. Yoon-Jae Cho. Dr. Till Milde provided HD-MB03, a treatment-naïve group 3 MBs. ICB1299 group 4 MB cells were obtained as a gift from Silvia Marino's laboratory^62. MBT375 was established in-house from a surgical specimen of group 4 MB, which was engrafted in the cerebellum of mice for serial propagation. Nanostring genotyping was used to confirm group 4 medulloblastoma identity. MED411FHTC PDOX were procured from Dr. Olson's brain tumor research lab. D425 and D458 were obtained from the ATCC. All cell lines were fingerprint verified by short tandem repeat (STR) profiling. NSC194, NSC197 and NSC201FT were derived in-house from donor fetal brain tissues^63.\n(§2) For assessment of viability, cells were seeded into 96-well plates at a density of 1,000 cells per well. Viability was measured by adding PrestoBlue™ diluted 1:10 (ThermoFisher Scientific; Catalogue #A13261) followed by a 4-hour incubation. Relative fluorescence intensity was determined via background correction. To assess tumorsphere forming capacity, cells were seeded at a low density (200 cells per well) and incubated for 3-5 days. Tumorspheres were manually counted thereafter."}, "[2]": {"test_system": "MED411-FHTC", "test": "PrestoBlue cell viability, 72-hour treatment, limiting dilution", "type": "cell-based", "conditions": "Homo sapiens, read-out: BAY2402234 IC50, G3MB-MYC", "method": "as §1, §2"}, "[3]": {"test_system": "D458", "test": "PrestoBlue cell viability, 72-hour treatment, limiting dilution", "type": "cell-based", "conditions": "Homo sapiens, read-out: BAY2402234 IC50; D458, G3MB-MYC", "method": "as §1, §2"}, "[4]": {"test_system": "HD-MB03", "test": "PrestoBlue cell viability, 72-hour treatment, limiting dilution", "type": "cell-based", "conditions": "Homo sapiens, read-out: BAY2402234 IC50; HD-MB03, G3MB-MYC", "method": "as §1, §2"}, "[5]": {"test_system": "SU_MB002 cells genomic DNA", "test": "Differential methylation analysis (Illumina EPIC array)", "type": "cell-based, human", "method": "Illumina Human Infinium MethylationEPIC (EPIC) BeadChip (Illumina, CA, USA) array was performed at The Centre for Applied Genomics, The Hospital for Sick Children (Toronto) using the manufacturer's standard protocol.\nRaw IDAT files (annotation: ilm10b4.hg19) were processed using R (Version 4.1.2) and quality control and normalization was performed using minfi^76. Intensity and density plots were generated, and no samples were removed from the analysis as the mean detection p-values for all probed genomic positions were <0.01 for each sample. Probes with mean detection p-values >0.01 across all samples were excluded. Probes mapping sex chromosomes, single nucleotide polymorphisms (SNPs), and cross-hybridisation probes were removed. Quantile normalization was performed, and density plots were generated before and after normalization. Differential analysis was completed with beta values of 768467 CpGs for 8 samples comparing BAY to DMSO at 48 h and 72 h using limma^77. P-values were adjusted for False Discovery Rate (FDR) using Benjamini and Hochberg method, and a 10% FDR and log FC of >|0.1| cut-off was used.\nDifferentially methylated positions (DMPs) were annotated using the USCS (UCSC_RefGene_Name, UCSC_RefGene_Group and Relation_to_Island) from the Infinium MethylationEPIC Manifest. The analysis was performed focusing on DMPs within promoter islands (considering TSS1500, TSS200, 5′UTR and 1st exon as promotor regions). Enrichment analysis of unique genes (using UCSC RefGene Name) identified within DMPs at promoter islands was performed using Enrichr (ENCODE TF ChIP-seq 2015)^43."}, "[6]": {"test": "Parallel artificial membrane permeability assay (PAMPA) for blood-brain barrier", "type": "in vitro ADME", "source_text": "The capacity of BQR and BAY to permeate the blood-brain barrier was first examined using the in vitro parallel artificial membrane permeability assay (PAMPA)^48 (FIG. 5A)."}}}
{"smiles": "CCn1c(CO)nn(-c2cc(O[C@@H](C)C(F)(F)F)c(C(=O)Nc3c(F)cccc3Cl)cc2F)c1=O", "note": "[BAY2402234]", "values": [{"measurement": "IC50", "setting": "[1]", "result": 0.494, "unit": "nM"}, {"measurement": "IC50", "setting": "[2]", "result": 0.626, "unit": "nM"}, {"measurement": "IC50", "setting": "[3]", "result": 0.26, "unit": "nM"}, {"measurement": "IC50", "setting": "[4]", "result": 0.243, "unit": "nM"}, {"measurement": "DMPs in promoter islands", "setting": "[5]; 48 h", "result": "2/18"}, {"measurement": "differentially methylated positions (DMPs), BAY vs vehicle", "setting": "[5]; 48 h of treatment", "result": 18}, {"measurement": "DMPs in promoter islands", "setting": "[5]; 72 h", "result": "123/751"}, {"measurement": "differentially methylated positions (DMPs), BAY vs vehicle", "setting": "[5]; 72 h of treatment", "result": 751}, {"measurement": "penetration coefficient (log PE)", "setting": "[6]", "result": "superior penetration coefficient (log PE) compared to BQR"}]}
